Test results taken from ChEMBL document CHEMBL3137667, “[Drug-induced liver injury; fourteenth updated edition of the bibliographic database of liver injuries and related drugs]” (Gastroenterol Clin Biol, 2004).

Key:
[1] = Highest frequency of moderate liver toxicity observed during clinical trials, expressed as a percentage. [column '% BIOL' in source]; conditions: human
[2] = Highest frequency of acute liver toxicity observed during clinical trials, expressed as a percentage. [column '% AIGUE' in source]; conditions: human
[3] = Proposed mechanism(s) of liver damage. [column 'MEC' in source]; conditions: human
[4] = human, serum
[5] = human, serum; remark: listed apart in the source
[6] = human
[7] = human; remark: listed apart in the source
[8] = human; remark: listed apart in the source
[9] = human, serum, 4383 h
[10] = human; remark: listed apart in the source
[11] = human; remark: listed apart in the source
[12] = human; remark: listed apart in the source
[13] = human; remark: listed apart in the source
[14] = human; remark: listed apart in the source
[15] = human; remark: listed apart in the source
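For Hepatotoxicity (association with vascular disease) in this document: count of indexed literature references reporting vascular liver injury in humans, e.g. peliosis hepatitis, hepatic veno-occlusive disease or Budd-Chiari syndrome.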
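For Hepatotoxicity (benign tumour) in this document: value is a count of indexed literature references citing a benign tumour confirmed by histopathology.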
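For Hepatotoxicity (choleostasis) in this document: human cholestatic liver injury, shown by histopathology or by peak ALT or AST elevation over alkaline phosphatase ratio below 2, value counts indexed literature reports.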
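For Hepatotoxicity (chronic liver disease) in this document: chronic liver injury confirmed by histopathology or persistently raised serum aminotransferase activity beyond 6 months, value given as the count of indexed literature references.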
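For Hepatotoxicity (cirrhosis) in this document: value is a count of indexed literature references reporting cirrhosis confirmed by histopathology.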
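For Hepatotoxicity (cytolytic) in this document: human cytolytic liver injury, shown by histopathology or by a ratio above 5 of peak ALT or AST elevation to alkaline phosphatase elevation, value counts indexed references.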
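For Hepatotoxicity (granulomatous hepatitis) in this document: value is a count of indexed literature references reporting granulomatous liver disease confirmed by histopathology.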
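For Hepatotoxicity (malignant tumour) in this document: malignant tumour confirmed by histopathology, value gives the count of indexed literature references reporting it.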
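For Hepatotoxicity (severe hepatitis) in this document: human clinical data: severe hepatitis, meaning potentially life-threatening liver failure or clinically observed cases, the value counts how many indexed literature references report it.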
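For Hepatotoxicity (steatosis) in this document: steatosis confirmed by histopathology, value is the count of indexed references.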

| Molecule | Hepatotoxicity (moderate) [1] | Hepatotoxicity (acute) [2] | Hepatotoxicity (mechanism) [3] | Hepatotoxicity (moderate) [4] | Hepatotoxicity (acute) [5] | Hepatotoxicity (cytolytic) [6] | Hepatotoxicity (choleostasis) [7] | Hepatotoxicity (severe hepatitis) [8] | Hepatotoxicity (chronic liver disease) [9] | Hepatotoxicity (cirrhosis) [10] | Hepatotoxicity (granulomatous hepatitis) [11] | Hepatotoxicity (association with vascular disease) [12] | Hepatotoxicity (steatosis) [13] | Hepatotoxicity (malignant tumour) [14] | Hepatotoxicity (benign tumour) [15] | further results |
| --- | --- | --- | --- | --- | --- | --- | --- | --- | --- | --- | --- | --- | --- | --- | --- | --- |
| CO[C@@H]1[C@@H](OC(N)=O)[C@@H](O)[C@H](Oc2ccc3c(O)c(NC(=O)c4ccc(O)c(CC=C(C)C)c4)c(=O)oc3c2C)OC1(C)C [NOVOBIOCIN] | 40% | 0% | Allergic, Dose-dependant | 2 | 5 | 2 | 3 | 2 | 0 | 0 | 0 | 0 | 0 | 0 | 0 | – |
| Nc1nc2[nH]cc(CCc3ccc(C(=O)N[C@@H](CCC(=O)O)C(=O)O)cc3)c2c(=O)[nH]1 [PEMETREXED] | 100% | 0% | Dose-dependant | 1 | 0 | 0 | 0 | 0 | 0 | 0 | 0 | 0 | 0 | 0 | 0 | – |
| COc1ccc(OC)c(Cc2cnc3nc(N)nc(N)c3c2C)c1 [PIRITREXIM] | 12.1% | 0% | Dose-dependant | 7 | 0 | 0 | 0 | 0 | 0 | 0 | 0 | 0 | 0 | 0 | 0 | – |
| CC(Cc1ccccc1)NCCC(c1ccccc1)c1ccccc1 (stereo not given) [PRENYLAMINE] | 7.7% | 0% | Dose-dependant | 1 | 0 | 0 | 0 | 0 | 0 | 0 | 0 | 0 | 0 | 0 | 0 | – |
| [H]/N=C(/N)N[C@H]1[C@H](O)[C@@H](O)[C@H](O[C@@H]2O[C@@H](C)[C@](O)(C=O)[C@H]2O[C@@H]2O[C@@H](CO)[C@H](O)[C@@H](O)[C@@H]2NC)[C@@H](N/C(N)=N\[H])[C@@H]1O [STREPTOMYCIN] | – | – | – | 1 | 4 | – | – | – | 0 | 0 | – | 0 | 0 | 0 | 0 | Hepatotoxicity (moderate) ([1]; Liver): 0%; Hepatotoxicity (acute) ([2]; Liver): 0%; Hepatotoxicity (mechanism) ([3]; Liver): Allergic; Hepatotoxicity (cytolytic) ([6]; Liver): 2; Hepatotoxicity (choleostasis) ([7]; Liver): 1; Hepatotoxicity (severe hepatitis) ([8]; Liver): 0; Hepatotoxicity (granulomatous hepatitis) ([11]; Liver): 0 |
| CC1(C)S[C@@H]2[C@H](NC(=O)C(c3ccccc3)S(=O)(=O)O)C(=O)N2[C@H]1C(=O)O (stereo not given in full) [SULBENICILLIN] | 6.7% | 1% | Allergic | 3 | 3 | 0 | 2 | 0 | 0 | 0 | 0 | 0 | 0 | 0 | 0 | – |
| CNCCNc1ccc2c3c(nn2CCNCCO)-c2c(O)ccc(O)c2C(=O)c13 [TELOXANTRONE] | 36.8% | 10.5% | Dose-dependant | 2 | 1 | 1 | 1 | 0 | 0 | 0 | 0 | 0 | 0 | 0 | 0 | – |
| CS(=O)(=O)c1ccc([C@@H](O)[C@@H](CO)NC(=O)C(Cl)Cl)cc1 [THIAMPHENICOL] | 0% | 0% | Allergic | 0 | 1 | 0 | 0 | 0 | 0 | 0 | 0 | 0 | 0 | 0 | 0 | – |
| O=C(Cn1c(=O)sc2ccc(Cl)cc21)N1CCN(CCO)CC1 [TIARAMIDE] | 0% | 0% | Allergic | 0 | 1 | 1 | 1 | 0 | 0 | 0 | 0 | 0 | 0 | 0 | 0 | – |
| CCOC(=O)c1c(N)sc2c1CCN(Cc1ccccc1)C2 [TINORIDINE] | 0% | 0% | Allergic | 1 | 1 | 0 | 0 | 0 | 0 | 0 | 0 | 0 | 0 | 0 | 0 | – |
| O[C@H]1[C@H]2[C@H](O)CCCN2C[C@H]1O [TRIDOLGOSIR] | 52.6% | 10.5% | Dose-dependant | 2 | 1 | 0 | 0 | 0 | 0 | 0 | 0 | 0 | 0 | 0 | 0 | – |
| CN1[C@@H]2CC[C@H]1C[C@@H](OC(=O)c1c[nH]c3ccccc13)C2 [TROPISETRON] | 40.9% | 4.5% | Dose-dependant | 3 | 1 | 1 | 0 | 0 | 0 | 0 | 0 | 0 | 0 | 0 | 0 | – |
| INTERFERON ALFA-N1 | 42% | 0% | Dose-dependant | 15 | 0 | 0 | 0 | 0 | 0 | 0 | 0 | 0 | 0 | 0 | 0 | – |
| INTERLEUKIN 6 | 55% | 0% | Dose-dependant | 9 | 2 | 0 | 1 | 0 | 0 | 0 | 0 | 0 | 0 | 0 | 0 | – |
